Data as given in US11970498B2, “CDK2 inhibitors” (BLUEPRINT MEDICINES CORPORATION, priority 2021, dated 2024).
Read-outs that look alike come from different tables or passages of the source.

Tests used:
CDK1/Cyclin B1, GST-tag = biological target: T1, CDK1/Cyclin B1, GST-tag (Homo sapiens, UniProt P06493); assay: CDK1/Cyclin B1 biochemical phosphorylation assay (Caliper mobility shift); details: apparent IC50; 1.0 mM ATP or ATP Km; 1.5 nM enzyme; 25° C.
T1 construct: GST
Protocol: (§1) Inhibitory effects of the compounds of the disclosure were measured in biochemical assays that measure the enzymatic phosphorylation activity of CDK enzyme in complex of Cyclin proteins phosphorylates 7.5 micromolar fluorescently labelled peptide substrate, 5-FAM-QSPKKG-CONH2, (FL-Peptide 18, Perkin Elmer, 760362) in the presence of adenosine-5′-triphosphate (ATP) and varying concentrations of the test compound in 100 mM 2-[4-(2-hydroxyethyl)piperazin-1-yl] ethanesulfonic acid (HEPES), pH 7.5, 10 mM MgCl2, 0.015% Brij-35, 1 mM dithiothreitol (DTT), 1.0% dimethylsulfoxide (DMSO). Assays were performed at 1.0 mM ATP or at ATP Km of the CDK enzymes in complex with Cyclin proteins. Reactions proceeded until between 10% to 20% total peptides were phosphorylated at room temperature (25° C.) and were terminated with 35 mM 2,2′,2″,2′″-(ethane-1,2-diyldinitrilo)tetraacetic acid (EDTA). Product was detected using the Caliper mobility shift detection method where the phosphorylated peptide (product) and substrate were electrophoretically separated and measured. Percent activity was plotted against log concentration of compound and points to generate an apparent IC50. The following CDK enzymes in complex with different cyclin proteins were used in these assays: • CDK1/Cyclin B1, GST-tag (BPS, 40454), 1.5 nM used in the assay • CDK2/Cyclin E (Eurofins, 14-475), 1.25 nM used in the assays
(§2) For inhibitory activity against CDK2/Cyclin E mutant, the following designations are used: ≤10 nM=A; >10-20 nM=B; >20-30 nM=C; >30-100 nM=D and >100=E. For inhibition CDK1/Cyclin B1, GST-tag: ≥500 nM=A; <100-500 nM=B; <100 nM=C.

CDK2/Cyclin E = CDK2/Cyclin E (Homo sapiens, UniProt P24941); assay: CDK2/Cyclin E biochemical phosphorylation assay (Caliper mobility shift)
Protocol: as §1, §2

[1] = apparent IC50, 1.0 mM ATP or ATP Km, 1.25 nM enzyme, 25° C., read-out: CDK2/cyclin E1 IC50

T1 sequence (P06493 whole entry): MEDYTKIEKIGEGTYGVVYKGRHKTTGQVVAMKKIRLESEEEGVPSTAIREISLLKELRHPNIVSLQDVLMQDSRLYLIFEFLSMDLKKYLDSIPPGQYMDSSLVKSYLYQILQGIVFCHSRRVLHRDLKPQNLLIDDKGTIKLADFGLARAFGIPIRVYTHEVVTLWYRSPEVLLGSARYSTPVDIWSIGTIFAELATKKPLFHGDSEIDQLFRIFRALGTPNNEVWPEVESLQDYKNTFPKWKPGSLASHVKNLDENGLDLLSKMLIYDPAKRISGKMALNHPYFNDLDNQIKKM
T1 sequence (P14635 whole entry partner): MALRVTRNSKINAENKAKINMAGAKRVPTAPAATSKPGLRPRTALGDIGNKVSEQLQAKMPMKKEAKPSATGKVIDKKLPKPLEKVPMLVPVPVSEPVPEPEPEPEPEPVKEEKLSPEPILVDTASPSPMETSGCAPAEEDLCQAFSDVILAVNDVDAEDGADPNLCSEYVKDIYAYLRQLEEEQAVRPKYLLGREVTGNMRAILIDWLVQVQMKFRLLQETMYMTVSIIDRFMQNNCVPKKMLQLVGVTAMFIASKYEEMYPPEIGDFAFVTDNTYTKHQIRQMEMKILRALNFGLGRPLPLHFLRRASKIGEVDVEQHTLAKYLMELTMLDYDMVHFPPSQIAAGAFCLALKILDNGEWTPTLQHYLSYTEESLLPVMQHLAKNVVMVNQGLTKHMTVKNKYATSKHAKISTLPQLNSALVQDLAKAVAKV

Row | Structure (SMILES) | IC50 (CDK1/Cyclin B1, GST-tag) | IC50 (CDK2/Cyclin E; [1]) | IC50 (CDK2/Cyclin E; additional compounds not disclosed herein, assays of Biological Example 1, read-out: inhibitory activity for CDK2/cyclin E1)
1 | C[C@@H](c1cc(Cl)ccn1)n1ncc2ncc(Nc3cc(OC(F)F)[nH]n3)nc21 (single isomer, unassigned) [Example 189, (R)-1-(1-(4-chloropyridin-2-yl)ethyl)-N-(5-(difluoromethoxy)-1H-pyrazol-3-yl)-1H-pyrazolo[3,4-b]pyrazin-6-amine or (S)-1-(1-(4-chloropyridin-2-yl)ethyl)-N-(5-(difluoromethoxy)-1H-pyrazol-3-yl)-1H-pyrazolo[3,4-b]pyrazin-6-amine] | ≥ 500 nM | > 100 nM | –
2 | N#C[C@@]1(Cn2ncc3ncc(Nc4cc(OC(F)F)[nH]n4)nc32)CCOC1 (single isomer, unassigned) [Example 169, (S)-3-((6-((5-(difluoromethoxy)-1H-pyrazol-3-yl)amino)-1H-pyrazolo[3,4-b]pyrazin-1-yl)methyl)tetrahydrofuran-3-carbonitrile or (R)-3-((6-((5-(difluoromethoxy)-1H-pyrazol-3-yl)amino)-1H-pyrazolo[3,4-b]pyrazin-1-yl)methyl)tetrahydrofuran-3-carbonitrile] | ≥ 500 nM | 20 to 30 nM | –
3 | COc1cc(Nc2cnc3cnn([C@@H](CF)C4CCOCC4)c3n2)n[nH]1 (single isomer, unassigned) [Example 195, (S)-1-(2-fluoro-1-(tetrahydro-2H-pyran-4-yl)ethyl)-N-(5-methoxy-1H-pyrazol-3-yl)-1H-pyrazolo[3,4-b]pyrazin-6-amine or (R)-1-(2-fluoro-1-(tetrahydro-2H-pyran-4-yl)ethyl)-N-(5-methoxy-1H-pyrazol-3-yl)-1H-pyrazolo[3,4-b]pyrazin-6-amine] | ≥ 500 nM | > 100 nM | –
4 | Cc1ccncc1Cn1ncc2ncc(Nc3cc(OC(F)F)[nH]n3)nc21 [Example 96, N-(5-(difluoromethoxy)-1H-pyrazol-3-yl)-1-((4-methylpyridin-3-yl)methyl)-1H-pyrazolo[3,4-b]pyrazin-6-amine] | ≥ 500 nM | 30 to 100 nM | –
5 | FC[C@@H](c1cccnc1)n1ncc2ncc(Nc3cc(OC(F)F)[nH]n3)nc21 (single isomer, unassigned) [Example 19, (R)—N-(5-(difluoromethoxy)-1H-pyrazol-3-yl)-1-(2-fluoro-1-(pyridin-3-yl)ethyl)-1H-pyrazolo[3,4-b]pyrazin-6-amine or (S)—N-(5-(difluoromethoxy)-1H-pyrazol-3-yl)-1-(2-fluoro-1-(pyridin-3-yl)ethyl)-1H-pyrazolo[3,4-b]pyrazin-6-amine] | 100 to 500 nM | ≤ 10 nM | –
6 | C[C@]1(Cn2ncc3ncc(Nc4cc(OC(F)F)[nH]n4)nc32)CCOC1 (single isomer, unassigned) [Example 166, (S)-N-(5-(difluoromethoxy)-1H-pyrazol-3-yl)-1-((3-methyltetrahydrofuran-3-yl)methyl)-1H-pyrazolo[3,4-b]pyrazin-6-amine or (R)-N-(5-(difluoromethoxy)-1H-pyrazol-3-yl)-1-((3-methyltetrahydrofuran-3-yl)methyl)-1H-pyrazolo[3,4-b]pyrazin-6-amine] | 100 to 500 nM | ≤ 10 nM | –
7 | N#CCC1(Cn2ncc3ncc(Nc4cc(OC(F)F)[nH]n4)nc32)CC1 [Example 132, 2-(1-((6-((5-(difluoromethoxy)-1H-pyrazol-3-yl)amino)-1H-pyrazolo[3,4-b]pyrazin-1-yl)methyl)cyclopropyl)acetonitrile] | ≥ 500 nM | 30 to 100 nM | –
8 | FC(F)Oc1cc(Nc2cnc3cnn(CC4CCCC4)c3n2)n[nH]1 [Example 104, 1-(cyclopentylmethyl)-N-(5-(difluoromethoxy)-1H-pyrazol-3-yl)-1H-pyrazolo[3,4-b]pyrazin-6-amine] | 100 to 500 nM | ≤ 10 nM | –
9 | C[C@@H](c1ccc(F)cn1)n1ncc2ncc(Nc3cc(OC(F)F)[nH]n3)nc21 [Example 48, (S)-N-(5-(difluoromethoxy)-1H-pyrazol-3-yl)-1-(1-(5-fluoropyridin-2-yl)ethyl)-1H-pyrazolo[3,4-b]pyrazin-6-amine] | ≥ 500 nM | ≤ 10 nM | –
10 | COc1cc(Nc2cnc3cnn(Cc4cccnc4F)c3n2)n[nH]1 [Example 137, 1-((2-fluoropyridin-3-yl)methyl)-N-(5-methoxy-1H-pyrazol-3-yl)-1H-pyrazolo[3,4-b]pyrazin-6-amine] | 100 to 500 nM | ≤ 10 nM | –
11 | C[C@H](c1cccnn1)n1ncc2ncc(Nc3cc(OC(F)F)[nH]n3)nc21 (single isomer, unassigned) [Example 25, (R)—N-(5-(difluoromethoxy)-1H-pyrazol-3-yl)-1-(1-(pyridazin-3-yl)ethyl)-1H-pyrazolo[3,4-b]pyrazin-6-amine or (S)—N-(5-(difluoromethoxy)-1H-pyrazol-3-yl)-1-(1-(pyridazin-3-yl)ethyl)-1H-pyrazolo[3,4-b]pyrazin-6-amine] | ≥ 500 nM | 30 to 100 nM | –
12 | C[C@@H](c1cccnc1F)n1ncc2ncc(Nc3cc(OC(F)F)[nH]n3)nc21 [Example 8, (S)—N-(5-(difluoromethoxy)-1H-pyrazol-3-yl)-1-(1-(2-fluoropyridin-3-yl)ethyl)-1H-pyrazolo[3,4-b]pyrazin-6-amine] | < 100 nM | ≤ 10 nM | –
13 | COc1cc(Nc2cnc3cnn(C[C@H]4C[C@@H](C)O[C@@H](C)C4)c3n2)n[nH]1 [Example 66, 1-(((2R,4r,6S)-2,6-dimethyltetrahydro-2H-pyran-4-yl)methyl)-N-(5-methoxy-1H-pyrazol-3-yl)-1H-pyrazolo[3,4-b]pyrazin-6-amine] | < 100 nM | ≤ 10 nM | –
14 | FC(F)Oc1cc(Nc2cnc3cnn(Cc4cnccn4)c3n2)n[nH]1 [Example 223, N-(5-(difluoromethoxy)-1H-pyrazol-3-yl)-1-(pyrazin-2-ylmethyl)-1H-pyrazolo[3,4-b]pyrazin-6-amine] | ≥ 500 nM | 20 to 30 nM | –
15 | C[C@@H]([C@H]1CCCOC1)n1ncc2ncc(Nc3cc(OC(F)F)[nH]n3)nc21 (single isomer, unassigned) [Example 215] | < 100 nM | ≤ 10 nM | –
16 | COc1cc(Nc2cnc3cnn(C[C@H]4C[C@@H]4C#N)c3n2)n[nH]1 (single isomer, unassigned) [Example 196, (1S,2S)-2-((6-((5-methoxy-1H-pyrazol-3-yl)amino)-1H-pyrazolo[3,4-b]pyrazin-1-yl)methyl)cyclopropane-1-carbonitrile or (1R,2R)-2-((6-((5-methoxy-1H-pyrazol-3-yl)amino)-1H-pyrazolo[3,4-b]pyrazin-1-yl)methyl)cyclopropane-1-carbonitrile] | ≥ 500 nM | > 100 nM | –
17 | C[C@H](c1cccc(F)n1)n1ncc2ncc(Nc3cc(OC(F)F)[nH]n3)nc21 (single isomer, unassigned) [Example 155, (R)-N-(5-(difluoromethoxy)-1H-pyrazol-3-yl)-1-(1-(6-fluoropyridin-2-yl)ethyl)-1H-pyrazolo[3,4-b]pyrazin-6-amine or (S)-N-(5-(difluoromethoxy)-1H-pyrazol-3-yl)-1-(1-(6-fluoropyridin-2-yl)ethyl)-1H-pyrazolo[3,4-b]pyrazin-6-amine] | ≥ 500 nM | 30 to 100 nM | –
18 | CC(c1cccn(C)c1=O)n1ncc2ncc(Nc3cc(OC(F)F)[nH]n3)nc21 (centres unmarked) | – | – | > 10000 nM
